# Data published in patent US20060069132A1, “Azolecarboxamide herbicides” (priority 2004, published 2006).
# What was measured:
# lambsquarters = experiment: Test B pre-/postemergence herbicide test; type: in vivo, Chenopodium album
# Outline: (§1)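 Seeds were planted and treated preemergence with compounds formulated in a non-phytotoxic solvent mixture containing surfactant, while plants at the 1- to 4-leaf stage (2 to 18 cm) received postemergence sprays. Flooded paddy plants were grown to the 2-leaf stage. After 13 to 15 days in a greenhouse, injury was visually rated 0–100 against untreated controls.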
# large crabgrass = experiment: Test B pre-/postemergence herbicide test; type: in vivo, Digitaria sanguinalis
# Outline: as §1
# blackgrass = experiment: Test B postemergence herbicide test; type: in vivo, Alopecurus myosuroides; conditions: scale 0 (no effect) to 100 (complete control)
# Outline: (§2)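 Each value is a visual 0–100 response rating taken against controls 13 to 15 days after treatment in the greenhouse. Plants received formulated chemical postemergence at the 1- to 4-leaf stage or, in flooded paddy, at the 2-leaf stage.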
# barnyardgrass = experiment: Test B pre-/postemergence herbicide test; type: in vivo, Echinochloa crus-galli
# Outline: (§3)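 Evaluation is visual, comparing treated with control plants on a scale where 0 means no effect and 100 means full control. Treatments were preemergence, or postemergence on seedlings 2–18 cm tall, and held 13–15 days in the greenhouse.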
# corn = experiment: Test B pre-/postemergence herbicide test; type: in vivo, Zea mays; conditions: preemergence
# Outline: as §1
# rice = experiment: Test B flooded paddy test; type: in vivo, Oryza sativa; conditions: 1000 g ai/ha, visual rating, scale 0 to 100 (0 no effect, 100 complete control), 13 to 15 days
# Outline: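 Visual ratings, 0 (no effect) to 100 (complete control), made versus controls after 13–15 d greenhouse. Paddy plants treated at 2-leaf stage; postemergence plants at 1- to 4-leaf stage, 2–18 cm tall.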
# Surinam grass = experiment: Test B pre-/postemergence herbicide test; type: in vivo, Urochloa decumbens
# Outline: as §1
# cocklebur = experiment: Test B pre-/postemergence herbicide test; type: in vivo, Xanthium strumarium
# Outline: as §3
# wild oat = experiment: Test B postemergence herbicide test; type: in vivo, Avena fatua; conditions: scale 0 (no effect) to 100 (complete control)
# Outline: (§4)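 Postemergence plants were sprayed with formulated test chemicals at 2 to 18 cm height (1- to 4-leaf stage); paddy species were grown to the 2-leaf stage. After 13 to 15 days in a greenhouse, injury was rated visually against untreated controls on a 0–100 scale (0 = no effect, 100 = complete control).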
# pigweed = experiment: Test B pre-/postemergence herbicide test; type: in vivo, Amaranthus retroflexus
# Outline: as §1
# giant foxtail = experiment: Test B pre-/postemergence herbicide test; type: in vivo, Setaria faberi
# Outline: as §1
# [1] = test system: small flower umbrella sedge; experiment: Test B flooded paddy test; type: in vivo, Cyperus difformis; conditions: 1000 g ai/ha, visual rating, scale 0 to 100 (0 no effect, 100 complete control), 13 to 15 days
# Outline: as §2
# velvetleaf = experiment: Test B pre-/postemergence herbicide test; type: in vivo, Abutilon theophrasti
# Outline: as §1
# wheat = experiment: Test B postemergence herbicide test; type: in vivo, Triticum aestivum; set-up: key to Wheat plant response rating: 0 = no effect, 100 = complete control; conditions: scale 0 (no effect) to 100 (complete control)
# Outline: as §4
# ducksalad = experiment: Test B flooded paddy test; type: in vivo, Heteranthera limosa; conditions: 1000 g ai/ha, visual rating, scale 0 to 100 (0 no effect, 100 complete control), 13 to 15 days
# Outline: as §2
# [2] = 500 g ai/ha, visual rating 0-100, 0 no effect, 100 complete control, preemergence
# [3] = Postemergence, 500 g ai/ha, visual rating after 13 to 15 days, scale 0 (no effect) to 100 (complete control)
# [4] = postemergence, 125 g ai/ha, visual rating, scale 0 (no effect) to 100 (complete control)
# [5] = preemergence, 125 g ai/ha, 0 to 100 scale, 0 is no effect, 100 is complete control
# [6] = Postemergence, 500 g ai/ha, visual rating after 13 to 15 days
# [7] = postemergence, 125 g ai/ha, visual rating
structure (smiles),measurement,setting,value
C=CCn1nc(C(C)(C)C)cc1C(=O)Nc1cccc(C(C)=NO)c1 [Compound 117],"Plant response rating, Lambsquarters",lambsquarters; [2],100
same,"Plant response rating, Lambsquarters",lambsquarters; [3],90
same,Lambsquarters plant response rating,lambsquarters; [4],60
same,"Plant response rating, Lambsquarters",lambsquarters; [5],90
same,"Plant response rating, Crabgrass, Large",large crabgrass; [2],100
same,"Plant response rating, Crabgrass, Large",large crabgrass; [3],30
same,"Crabgrass, Large plant response rating",large crabgrass; [4],10
same,"Plant response rating, Crabgrass, Large",large crabgrass; [5],90
same,"Plant response rating, Blackgrass",blackgrass; [6],10
same,Blackgrass plant response rating,blackgrass; [7],0
same,"Plant response rating, Barnyardgrass",barnyardgrass; [2],90
same,"Plant response rating, Barnyardgrass",barnyardgrass; [3],30
same,Barnyardgrass plant response rating,barnyardgrass; [4],20
same,"Plant response rating, Barnyardgrass",barnyardgrass; [5],60
same,"Plant response rating, Corn","corn; 500 g ai/ha, visual rating 0-100, 0 no effect, 100 complete control",30
same,"Plant response rating, Corn","corn; 125 g ai/ha, 0 to 100 scale, 0 is no effect, 100 is complete control",0
same,Rice plant response rating,rice,50
same,"Plant response rating, Surinam Grass",Surinam grass; [2],60
same,"Plant response rating, Surinam Grass",Surinam grass; [3],40
same,Surinam Grass plant response rating,Surinam grass; [4],30
same,"Plant response rating, Surinam Grass",Surinam grass; [5],30
same,"Plant response rating, Cocklebur",cocklebur; [2],30
same,"Plant response rating, Cocklebur",cocklebur; [3],90
same,Cocklebur plant response rating,cocklebur; [4],30
same,"Plant response rating, Cocklebur",cocklebur; [5],20
same,"Plant response rating, Oat, Wild",wild oat; [6],20
same,"Oat, Wild plant response rating",wild oat; [7],10
same,"Plant response rating, Pigweed",pigweed; [2],90
same,"Plant response rating, Pigweed",pigweed; [3],90
same,Pigweed plant response rating,pigweed; [4],50
same,"Plant response rating, Pigweed",pigweed; [5],60
same,"Plant response rating, Foxtail, Giant",giant foxtail; [2],80
same,"Plant response rating, Foxtail, Giant",giant foxtail; [3],20
same,"Foxtail, Giant plant response rating",giant foxtail; [4],10
same,"Plant response rating, Foxtail, Giant",giant foxtail; [5],20
same,"Sedge, Umbrella plant response rating",[1],90
same,"Plant response rating, Velvetleaf",velvetleaf; [2],70
same,"Plant response rating, Velvetleaf",velvetleaf; [3],50
same,Velvetleaf plant response rating,velvetleaf; [4],20
same,"Plant response rating, Velvetleaf",velvetleaf; [5],60
same,"Plant response rating, Wheat",wheat; [6],20
same,Wheat plant response rating,wheat; [7],10
same,Ducksalad plant response rating,ducksalad,80
